According to US9120820B2, “Fluorescent molecular probes for use in assays that measure test compound competitive binding with SAM-utilizing proteins” (CAYMAN CHEMICAL COMPANY, INCORPORATED, priority 2011, dated 2015):

Assays:
GLP = target: T1, GLP (Homo sapiens, UniProt Q9H9B1); test: Radiometric methyltransferase assay, GLP; assay type: biochemical; settings: GLP 10 nM; compound 10 μM, 1 μM, or 0.1 μM; FIG. 13
T1 sequence (Q9H9B1 1-1298): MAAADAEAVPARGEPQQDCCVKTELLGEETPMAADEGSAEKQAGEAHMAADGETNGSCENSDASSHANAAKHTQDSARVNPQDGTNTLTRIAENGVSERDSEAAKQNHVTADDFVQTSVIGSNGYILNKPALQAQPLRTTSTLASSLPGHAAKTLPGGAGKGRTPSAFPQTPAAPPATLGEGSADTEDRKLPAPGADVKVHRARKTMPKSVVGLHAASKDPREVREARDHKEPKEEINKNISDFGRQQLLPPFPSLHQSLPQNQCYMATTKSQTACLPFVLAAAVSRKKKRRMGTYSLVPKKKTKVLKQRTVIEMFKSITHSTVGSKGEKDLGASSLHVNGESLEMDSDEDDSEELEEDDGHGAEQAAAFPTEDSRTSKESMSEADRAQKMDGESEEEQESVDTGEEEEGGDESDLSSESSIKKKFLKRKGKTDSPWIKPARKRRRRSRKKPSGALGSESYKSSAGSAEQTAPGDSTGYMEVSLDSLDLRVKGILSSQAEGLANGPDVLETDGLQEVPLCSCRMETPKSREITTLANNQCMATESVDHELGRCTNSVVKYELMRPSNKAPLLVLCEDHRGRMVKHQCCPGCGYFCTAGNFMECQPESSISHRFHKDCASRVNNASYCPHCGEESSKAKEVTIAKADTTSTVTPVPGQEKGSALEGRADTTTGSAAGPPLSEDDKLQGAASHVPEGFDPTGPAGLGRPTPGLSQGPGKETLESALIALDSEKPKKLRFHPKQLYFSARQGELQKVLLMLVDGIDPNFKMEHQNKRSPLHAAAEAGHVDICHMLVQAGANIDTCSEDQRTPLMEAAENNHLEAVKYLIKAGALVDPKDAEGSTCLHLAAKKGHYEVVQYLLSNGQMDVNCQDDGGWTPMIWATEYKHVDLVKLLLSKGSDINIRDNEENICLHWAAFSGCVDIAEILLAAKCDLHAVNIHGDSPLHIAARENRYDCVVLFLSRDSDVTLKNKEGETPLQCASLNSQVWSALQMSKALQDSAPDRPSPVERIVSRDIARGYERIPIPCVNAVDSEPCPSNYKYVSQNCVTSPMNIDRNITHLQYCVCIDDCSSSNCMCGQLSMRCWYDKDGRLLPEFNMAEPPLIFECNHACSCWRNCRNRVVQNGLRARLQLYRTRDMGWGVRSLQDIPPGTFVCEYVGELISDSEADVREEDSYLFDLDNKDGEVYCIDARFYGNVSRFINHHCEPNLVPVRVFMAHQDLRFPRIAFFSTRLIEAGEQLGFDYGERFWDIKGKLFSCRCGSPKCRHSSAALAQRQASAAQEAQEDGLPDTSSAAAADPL
Experimental: (§1) Reagents: Compound 16A was prepared by the method described in Example 4 and illustrated in FIG. 5. The Compounds 20A-iv and 20A-iii were prepared according to methods described in Example 6 and illustrated in FIG. 7. Enzymes were obtained from the Cayman Catalog with the exception of PRMT4 and PRMT6, which were produced in baculovirus and purified to near homogeneity using Ni-affinity chromatography. Human core histones were purified from HeLa nuclear pellet per the method of Coté et al. S-adenosylmethionine (SAM) was obtained from Sigma-Aldrich (Cat #A7007) and S-[methyl-3H]-SAM was obtained from Perkin-Elmer ([…]). Methods: […] To this was added enzyme diluted to provide a final assay concentration (GLP: 10 nM; PRMT1: 100 nM; SET7/9: 120 nM; PRDM9: 120 nM; PRMT4: 150 nM; PRMT6: 120 nM; G9a: 200 nM) and the compound was allowed to preincubate for 10 minutes at room temperature. […] Samples were mixed immediately after quenching and transferred to a 96-well GFC Uni-Filter microtiter filter plate (Perkin Elmer, Cat#6005174) that contained 50 μl of 20% TCA. Samples were allowed to precipitate for at least 5 minutes at room temperature. The samples were filtered onto the GFC membrane and washed four times with 100 μl of 10% TCA and once with 100 μl of 95% EtOH. To each well was added 25 μl of MicroScint-20 (Perkin-Elmer Cat#6013621) and samples were analyzed using a TopCount NXT microplate scintillation counter. The experiment was performed one time in duplicate for all compound concentrations tested and in triplicate for the vehicle and no enzyme controls. All data was analyzed in GraphPad Prism (v. 5.04).

SET7/9 = target: T2, SET7/9 (Homo sapiens, UniProt Q8WTS6); test: Radiometric methyltransferase assay, SET7/9; assay type: biochemical; settings: SET7/9 120 nM; compound 10 μM, 1 μM, or 0.1 μM; FIG. 13
T2 construct: purchased Cayman 10320
T2 sequence (Q8WTS6 1-366): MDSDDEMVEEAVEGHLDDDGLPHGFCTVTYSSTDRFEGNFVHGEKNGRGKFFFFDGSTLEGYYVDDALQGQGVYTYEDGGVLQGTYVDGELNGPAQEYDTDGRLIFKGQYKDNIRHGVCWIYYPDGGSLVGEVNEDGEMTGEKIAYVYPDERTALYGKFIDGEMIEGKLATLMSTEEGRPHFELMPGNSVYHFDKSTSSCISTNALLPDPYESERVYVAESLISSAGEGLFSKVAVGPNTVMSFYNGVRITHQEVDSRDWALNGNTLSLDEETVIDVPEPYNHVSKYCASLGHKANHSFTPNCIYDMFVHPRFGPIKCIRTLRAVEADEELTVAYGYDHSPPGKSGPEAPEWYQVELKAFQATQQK
Experimental: as §1

Row | SMILES | inhibition of enzymatic activity (GLP) | inhibition of enzymatic activity (SET7/9)
1 | CSC[C@H]1O[C@@H](n2cnc3c(N)nc(NCCNC(=O)OC(C)(C)C)nc32)[C@H](O)[C@@H]1O [Compound 16A, tert-butyl (2-((6-amino-9-((2R,3R,4S,5S)-3,4-dihydroxy-5-((methylthio)methyl)tetrahydrofuran-2-yl)-9H-purin-2-yl)amino)ethyl)carbamate] | not dramatically altering the activity | not dramatically altering the activity
2 | CCNC(=O)[C@H]1O[C@@H](n2cnc3c(N)nc(Cl)nc32)[C@H](O)[C@@H]1O [Compound 20A-iii, 2-chloroadenosine-5′-N-ethylcarboxamide] | did not show appreciable inhibition | did not show appreciable inhibition
3 | CCNC[C@H]1O[C@@H](n2cnc3c(N)nc(Cl)nc32)[C@H](O)[C@@H]1O [Compound 20A-iv, 2-chloroadenosine-5′-N-ethylamine] | did not show appreciable inhibition | did not show appreciable inhibition
